Assay results: paper PMC12123601, “Light-Induced, Lysine-Targeting Irreversible Covalent Inhibition of the Human Oxygen Sensing Hydroxylase Factor Inhibiting HIF (FIH)” (Journal of the American Chemical Society, 2025)
Like-named read-outs stand apart in the source and are kept apart here.

Columns and labels:
FIH^K106A = target: T1, FIH^K106A (Homo sapiens, UniProt Q9NWT6, K106A); assay: Affinity-based fluorescence polarization (FP) assay with the FIH K106A variant, without and with irradiation; type: binding; settings: read-out: Binding affinity to FIH^K106A: Ki
T1 construct: encoding for full-length FIH with an N-terminal His6 tag or for FIH (K106A) with an N-terminal His6 tag; His6 (N); host or cells: Escherichia coli BL21
From the text: (§1) 4 (A) Light-induced click conjugation between NBA-ZG-2291 and FIH protein. (B) Light-induced binding affinity of NBA-ZG-2291 to FIH^ WT . (C) Light-induced binding affinity of NBA-ZG-2291 to FIH^ K106A . […] TEXT PRINTED IN THE PICTURE: (B) NBA-ZG-2291: Binding affinity to FIH^WT: Ki (nM): 414 ± 14 (Irradtion time (min): 0); Binding affinity to FIH^WT: Ki (nM): 74.1 ± 1.6 (Irradtion time (min): 15); Binding affinity to FIH^WT: Ki (nM): 46.7 ± 1.4 (Irradtion time (min): 30); Binding affinity to FIH^WT: Ki (nM): 33.2 ± 0.6 (Irradtion time (min): 60); Binding affinity to FIH^WT: Ki (nM): 30.2 ± 2.0 (Irradtion time (min): 90); Binding affinity to FIH^WT: Ki (nM): 32.1 ± 0.7 (Irradtion time (min): 120) | (B) Neg-1: Binding affinity to FIH^WT: Ki (nM): 423 ± 7 (Irradtion time (min): 0); Binding affinity to FIH^WT: Ki (nM): 408 ± 30 (Irradtion time (min): 15); Binding affinity to FIH^WT: Ki (nM): 459 ± 32 (Irradtion time (min): 30); Binding affinity to FIH^WT: Ki (nM): 427 ± 17 (Irradtion time (min): 60); Binding affinity to FIH^WT: Ki (nM): 396 ± 29 (Irradtion time (min): 90); Binding affinity to FIH^WT: Ki (nM): 428 ± 15 (Irradtion time (min): 120) | (B) Neg-2: Binding affinity to FIH^WT: Ki (nM): 742 ± 65 (Irradtion time (min): 0); Binding affinity to FIH^WT: Ki (nM): 799 ± 69 (Irradtion time (min): 15); Binding affinity to FIH^WT: Ki (nM): 758 ± 13 (Irradtion time (min): 30); Binding affinity to FIH^WT: Ki (nM): 744 ± 30 (Irradtion time (min): 60); Binding affinity to FIH^WT: Ki (nM): 788 ± 36 (Irradtion time (min): 90); Binding affinity to FIH^WT: Ki (nM): 786 ± 35 (Irradtion time (min): 120) | (C) NBA-ZG-2291: Binding affinity to FIH^K106A: Ki (nM): 442 ± 12 (Irradtion time (min): 0); Binding affinity to FIH^K106A: Ki (nM): 427 ± 22 (Irradtion time (min): 15); Binding affinity to FIH^K106A: Ki (nM): 426 ± 7 (Irradtion time (min): 30); Binding affinity to FIH^K106A: Ki (nM): 420 ± 11 (Irradtion time (min): 60); Binding affinity to FIH^K106A: Ki (nM): 418 ± 5 (Irradtion time (min): 90); Binding affinity to FIH^K106A: Ki (nM): 424 ± 12 (Irradtion time (min): 120) | (C) Neg-1: Binding affinity to FIH^K106A: Ki (nM): 271 ± 14 (Irradtion time (min): 0); Binding affinity to FIH^K106A: Ki (nM): 275 ± 15 (Irradtion time (min): 15); Binding affinity to FIH^K106A: Ki (nM): 268 ± 25 (Irradtion time (min): 30); Binding affinity to FIH^K106A: Ki (nM): 266 ± 22 (Irradtion time (min): 60); Binding affinity to FIH^K106A: Ki (nM): 264 ± 41 (Irradtion time (min): 90); Binding affinity to FIH^K106A: Ki (nM): 270 ± 3 (Irradtion time (min): 120) | (C) Neg-2: Binding affinity to FIH^K106A: Ki (nM): 567 ± 37 (Irradtion time (min): 0); Binding affinity to FIH^K106A: Ki (nM): 548 ± 61 (Irradtion time (min): 15); Binding affinity to FIH^K106A: Ki (nM): 521 ± 50 (Irradtion time (min): 30); Binding affinity to FIH^K106A: Ki (nM): 627 ± 17 (Irradtion time (min): 60); Binding affinity to FIH^K106A: Ki (nM): 565 ± 10 (Irradtion time (min): 90); Binding affinity to FIH^K106A: Ki (nM): 552 ± 38 (Irradtion time (min): 120) […]
To further verify the covalent binding between NBA-ZG-2291 and Lys106, the FIH^ K106A variant was produced and purified.
(§2) 3. Experimental procedures
(§3) 3.1 Fluorescence polarization (FP) assays1 with FIHWT and FIHK106A pET28a vectors encoding for full-length FIH with an N-terminal His6 tag or for FIH (K106A) with an N-terminal His6 tag were purchased from Nanjing Zoonbio Biotechnology. Both the FIHWT and FIHK106A protein were expressed from the respective plasmid in Escherichia coli BL21 at 20 °C for 16 h. E. coli cells were lysed and the lysate were clarified by centrifugation. His6-tagged FIHWT or FIHK106A was purified on a HisTrap affinity column (GE Healthcare) by elution with an imidazole gradient. The final purified proteins were stored in PBS buffer.
FP assays were carried out using 384 -well plates (#3575, Corning); the polarization signal was measured using a SPARK Multi-Mode Microplate Reader (Tecan). […]

FIH^WT = target: T2, FIH^WT (Homo sapiens, UniProt Q9NWT6); assay: Affinity-based fluorescence polarization (FP) assay with FIH WT, without and with 365 nm irradiation; settings: read-out: Binding affinity to FIH^WT: Ki
T2 construct: pET28a vectors encoding for full-length FIH with an N-terminal His6 tag; His6 (N); host or cells: Escherichia coli BL21
From the text: We also performed a reported affinity-based fluorescence polarization (FP) assay (Figure S6) , under light activation to measure the binding affinity of NBA-ZG-2291 to FIH (Figure A). […] These observations are consistent with the intact protein MS analyzes. We also evaluated the binding affinities of two negative controls to FIH, which were designed not to covalently react with Lys106.
as §1, §2
as §3, with “His6- […]” for “His6-tagged FIHWT or FIHK106A was purified on a HisTrap affinity column (GE Healthcare) by elution with an imidazole gradient. The final purified proteins were stored in PBS buffer.”

T2 sequence (Q9NWT6 whole entry): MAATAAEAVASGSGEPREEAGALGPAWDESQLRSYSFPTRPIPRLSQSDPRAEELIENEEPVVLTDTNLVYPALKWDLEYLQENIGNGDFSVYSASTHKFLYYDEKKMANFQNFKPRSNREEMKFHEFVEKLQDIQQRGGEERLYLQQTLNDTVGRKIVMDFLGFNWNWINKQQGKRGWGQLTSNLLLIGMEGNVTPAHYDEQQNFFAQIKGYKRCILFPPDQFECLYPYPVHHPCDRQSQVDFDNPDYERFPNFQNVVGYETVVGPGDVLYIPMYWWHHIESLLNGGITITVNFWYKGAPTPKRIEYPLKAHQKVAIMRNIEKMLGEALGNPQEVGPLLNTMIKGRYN
T1 sequence (Q9NWT6 whole entry K106A): as the sequence (Q9NWT6 whole entry) above, with K106A counted along it

Ki (FIH^K106A; irradiation time 0 min)	Ki (FIH^K106A; irradiation time 15 min)	Ki (FIH^K106A; irradiation time 30 min)	Ki (FIH^K106A; irradiation time 60 min)	Ki (FIH^K106A; irradiation time 90 min)	Ki (FIH^K106A; irradiation time 120 min)	Ki (FIH^WT; irradiation time 0 min)	Ki (FIH^WT; irradiation time 15 min)	Ki (FIH^WT; irradiation time 30 min)	Ki (FIH^WT; irradiation time 60 min)	Ki (FIH^WT; irradiation time 90 min)	Ki (FIH^WT; irradiation time 120 min)	SMILES
271 ± 14 nM	275 ± 15 nM	268 ± 25 nM	266 ± 22 nM	264 ± 41 nM	270 ± 3 nM	423 ± 7 nM	408 ± 30 nM	459 ± 32 nM	427 ± 17 nM	396 ± 29 nM	428 ± 15 nM	O=C(O)CNC(=O)c1ncc(-c2cc(-c3cccc([N+](=O)[O-])c3)no2)cc1O [Neg-1]
567 ± 37 nM	548 ± 61 nM	521 ± 50 nM	627 ± 17 nM	565 ± 10 nM	552 ± 38 nM	742 ± 65 nM	799 ± 69 nM	758 ± 13 nM	744 ± 30 nM	788 ± 36 nM	786 ± 35 nM	O=C(O)CNC(=O)c1ncc(-c2cc(-c3ccc(CO)cc3)no2)cc1O [Neg-2]
